Experiments:
tubulin [1] = tested on: T1, tubulin; test: in vitro tubulin polymerisation assay; assay type: biochemical
T1 construct: with alpha/beta-tubulin heterodimer

tubulin [2] = tested on: T1, tubulin; test: in vitro tubulin polymerisation assay; supported by immunofluorescence of microtubules in HepG2 cells; assay type: biochemical

| IC50 (tubulin [1]) [µM] | IC50 (tubulin [2]) [nM] | Structure (SMILES) |
| --- | --- | --- |
| > 4 | – | COc1ccc(CN(C(=O)CSC(=S)N2CC(C)CC(C)C2)c2cc(OC)c(OC)c(OC)c2)cc1 (centres unmarked) [C14, 2-((4-Methoxybenzyl)(3,4,5-trimethoxyphenyl)amino)-2-oxoethyl-3,5-dimethylpiperidine-1-carbodithioate] |
| – | 2400 | COc1ccc(CN(C(=O)CSC(=S)N2CCCCC2)c2cc(OC)c(OC)c(OC)c2)cc1 [C11, 2-((4-Methoxybenzyl)(3,4,5-trimethoxyphenyl)amino)-2-oxoethylpiperidine-1-carbodithioate] |

Reference: paper PMC9639481, “Discovery of dual tubulin-NEDDylation inhibitors with antiproliferative activity” (Journal of Enzyme Inhibition and Medicinal Chemistry, 2022)
